Among the test systems are Pseudomonas aeruginosa; Staphylococcus aureus; Escherichia coli UB1005.
Common to all, as to experiment: ≥ marks a high value that may be exact or a test limit, other limits are often not marked, values filed in µg/mL are converted to µM
Experiment [1] concerns Mycobacterium tuberculosis H37Rv.
Experiment [2] concerns Candida albicans NCYC 1467.
Experiment [3] relates to Escherichia coli NCTC 10418.
The test system of experiment [4] is Pseudomonas aeruginosa ATCC 27853.
Experiment [5] deals with Staphylococcus aureus NCTC 10788.
The subject of experiment [6] is Staphylococcus aureus NCTC 12493.
For experiment [7], the system named is Pseudomonas aeruginosa H1001.
Experiment [8] relates to Burkholderia cepacia ATCC 25416.
Experiment [9] relates to Pseudomonas aeruginosa H547.
Experiment [10] deals with Pseudomonas aeruginosa H744.
In experiment [11] the test system is Pseudomonas aeruginosa K799.
For experiment [12], the system named is Pseudomonas aeruginosa Z61.
The test system of experiment [13] is Salmonella enterica subsp. enterica serovar Typhimurium ATCC 14028s.
In experiment [14] the test system is Pseudomonas aeruginosa H187.
For experiment [15], the system named is Bordetella bronchiseptica CUN 11844-99.
Experiment [16] deals with Escherichia coli ATCC 25922.
In experiment [17] the test system is Pseudomonas aeruginosa CUN 4158-02.
The subject of experiment [18] is Staphylococcus aureus ATCC 25923.

Values after ≈ are worked out from the molar mass of the structure shown. A value given as a limit tells only on which side of the number the result lay.

`CSCC[C@H](NC(=O)[C@H](CCC(=O)O)NC(=O)[C@H](CCCN=C(N)N)NC(=O)[C@@H](N)CCCCN)C(=O)N[C@@H](CCCCN)C(=O)N[C@@H](CCCN=C(N)N)C(=O)N1CCC[C@H]1C(=O)NCC(=O)N[C@@H](CCCCN)C(=O)NCC(=O)N[C@@H](CC(N)=O)C(=O)N[C@@H](CCCN=C(N)N)C(=O)N[C@@H](CC(N)=O)C(=O)N[C@@H](CC(N)=O)C(=O)N[C@@H](Cc1c[nH]c2ccccc12)C(=O)N[C@@H](CCCCN)C(=O)N[C@@H](CCCCN)C(=O)N[C@@H](CCC(=O)O)C(=O)N[C@@H](Cc1ccc(O)cc1)C(=O)O` [KREMKRPGKGNRNNWKKEY]: the MIC (usually the lowest concentration that inhibits growth of the organism) in experiment [1] was not below 82.7 µM.

Turning to `CC[C@H](C)[C@@H]1NC(=O)[C@@H](NC(=O)[C@H](Cc2ccccc2)NC(=O)[C@H](C)NC(=O)[C@H](CCCCN)NC(=O)[C@H](CCCCN)NC(=O)[C@H](CC(C)C)NC(=O)[C@H](CC(C)C)NC(=O)[C@H](Cc2ccccc2)NC(=O)[C@@H](NC(=O)[C@H](CO)NC(=O)[C@@H]2CCCN2C(=O)[C@@H](NC(=O)[C@@H](NC(=O)[C@@H](N)Cc2ccccc2)[C@@H](C)CC)C(C)C)[C@@H](C)CC)CSSC[C@@H](C(=O)O)NC(=O)[C@H](CCCCN)NC(=O)[C@H](CCCCN)NC(=O)[C@H](CC(C)C)NC(=O)[C@H](C)NC1=O` [FIVPSIFLLKKAFCIALKKC], the MIC is 4 µM (≈ 9.12 µg/mL) in experiment [2]; 16 µM (≈ 36.5 µg/mL) in [3]; more than 512 µM in [4]; more than 512 µM in the experiment on Pseudomonas aeruginosa; 4 µM (≈ 9.12 µg/mL) in experiment [5]; 4 µM (≈ 9.12 µg/mL) in [6]. The minimum inhibitory concentration (MIC) with Staphylococcus aureus stood at 8 µM (≈ 18.2 µg/mL).

The compound `CC[C@H](C)[C@H](NC(=O)[C@H](CCCN=C(N)N)NC(=O)[C@H](CCCN=C(N)N)NC(=O)[C@H](CCCN=C(N)N)NC(=O)[C@@H]1CCCN1C(=O)[C@H](CCCN=C(N)N)NC(=O)[C@@H]1CCCN1C(=O)[C@H](CCCN=C(N)N)NC(=O)[C@@H]1CCCN1C(=O)[C@H](CC(C)C)NC(=O)[C@H](Cc1ccc(O)cc1)NC(=O)[C@@H]1CCCN1C(=O)[C@@H]1CCCN1C(=O)[C@H](CCCCN)NC(=O)[C@H](CC(=O)O)NC(=O)[C@@H](N)C(C)C)C(=O)N[C@@H](Cc1ccc(O)cc1)C(=O)N[C@@H](CC(N)=O)C(=O)N[C@@H](CCCN=C(N)N)C(=O)NCC(=O)O` [VDKPPYLPRPRPRRRIYNRG] displayed an MIC in experiment [7] of 0.12 µM (≈ 0.3 µg/mL).

Consider `CC[C@H](C)[C@H](NC(=O)[C@H](CC(C)C)NC(=O)[C@H](C)NC(=O)[C@H](CC(C)C)NC(=O)[C@@H]1CCCN1C(=O)[C@H](CCCCN)NC(=O)[C@H](C)NC(=O)[C@@H](NC(=O)[C@@H](NC(=O)[C@@H](NC(=O)[C@@H](NC(=O)[C@H](CCCCN)NC(=O)[C@H](CCCCN)NC(=O)[C@H](C)NC(=O)[C@H](C)NC(=O)[C@H](CO)NC(=O)[C@@H](NC(=O)[C@H](CC(C)C)NC(=O)[C@H](CCCCN)NC(=O)[C@H](CCCCN)NC(=O)[C@@H](NC(=O)[C@H](Cc1ccccc1)NC(=O)[C@H](CO)NC(=O)[C@H](CCCCN)NC(=O)[C@H](Cc1c[nH]c2ccccc12)NC(=O)[C@@H](N)CCCCN)[C@@H](C)CC)[C@@H](C)O)C(C)C)C(C)C)[C@@H](C)O)[C@@H](C)O)C(=O)N[C@@H](CO)C(=O)O` [KWKSFIKKLTSAAKKVVTTAKPLALIS], for which the MIC was 21.6 µM (≈ 64 µg/mL) in experiment [8]; 0.676 µM (≈ 2 µg/mL) against Escherichia coli UB1005; 5.41 µM (≈ 16 µg/mL) in [9]; 0.676 µM (≈ 2 µg/mL) in [10]; 1.35 µM (≈ 4 µg/mL) in [11]; 1.35 µM (≈ 4 µg/mL) in experiment [12]. The compound also yielded a minimum inhibitory concentration (MIC) in experiment [13] of 1.69 µM (≈ 5 µg/mL).

For the compound `CC[C@H](C)[C@H](NC(=O)[C@H](CC(C)C)NC(=O)[C@H](C)NC(=O)[C@@H]1CCCN1C(=O)[C@H](CC(C)C)NC(=O)CNC(=O)[C@@H](NC(=O)[C@@H](NC(=O)[C@H](CC(C)C)NC(=O)[C@@H](NC(=O)[C@H](CCCCN)NC(=O)[C@H](CCCCN)NC(=O)[C@@H](NC(=O)[C@H](C)NC(=O)[C@@H](NC(=O)[C@@H](NC(=O)[C@H](CC(C)C)NC(=O)[C@H](CCCCN)NC(=O)[C@H](CCCCN)NC(=O)[C@@H](NC(=O)[C@H](Cc1ccccc1)NC(=O)[C@H](CCC(=O)O)NC(=O)[C@H](CCCCN)NC(=O)[C@H](Cc1c[nH]c2ccccc12)NC(=O)[C@@H](N)CCCCN)[C@@H](C)CC)[C@@H](C)O)[C@@H](C)O)C(C)C)C(C)C)[C@@H](C)O)[C@@H](C)O)C(=O)N[C@@H](CO)C(=O)O` [KWKEFIKKLTTAVKKVLTTGLPALIS], the minimal inhibitory concentration (MIC) against Escherichia coli UB1005 is 0.823 µM (≈ 2.4 µg/mL); in [14] it was 1.65 µM (≈ 4.8 µg/mL).

Regarding `CC(C)C[C@H](NC(=O)CNC(=O)[C@H](CCCCN)NC(=O)[C@H](Cc1ccccc1)NC(=O)[C@H](CCCCN)NC(=O)[C@H](Cc1c[nH]c2ccccc12)NC(=O)[C@H](CCCN=C(N)N)NC(=O)[C@H](Cc1ccccc1)NC(=O)[C@H](CCCCN)NC(=O)[C@H](CCCCN)NC(=O)[C@H](Cc1ccc(O)cc1)NC(=O)[C@H](CCCN=C(N)N)NC(=O)[C@H](CCCN=C(N)N)NC(=O)CN)C(=O)N[C@@H](Cc1ccccc1)C(=O)N[C@@H](CC(C)C)C(=O)N[C@@H](Cc1ccccc1)C(=O)N[C@@H](CC(C)C)C(=O)NCC(N)=O` [GRRYKKFRWKFKGLFLFLG], the MIC in experiment [15] was 6.54 µM (≈ 16 µg/mL); in [16], 26.1 µM (≈ 64 µg/mL); in [17], 26.1 µM (≈ 64 µg/mL); in [18], 26.1 µM (≈ 64 µg/mL).

Take `CC[C@H](C)[C@H](NC(=O)[C@H](C)NC(=O)[C@H](CC(N)=O)NC(=O)[C@H](CCSC)NC(=O)[C@@H]1CCCN1)C(=O)N[C@@H](CCCCN)C(=O)N[C@@H](CC(C)C)C(=O)N[C@@H](CC(C)C)C(=O)N[C@@H](CS)C(=O)N[C@@H](CCCN=C(N)N)C(=O)O` [PMNAIKLLCR]: the MIC in experiment [7] is not below 173 µM.

On to `CC[C@H](C)[C@H](NC(=O)CNC(=O)[C@@H](NC(=O)[C@H](CCCCN)NC(=O)[C@H](CCCCN)NC(=O)[C@H](Cc1ccccc1)NC(=O)[C@H](CC(C)C)NC(=O)[C@@H](N)CCCCN)[C@@H](C)CC)C(=O)NCC(=O)N[C@@H](C)C(=O)N[C@H](C(=O)N[C@@H](CC(C)C)C(=O)N[C@@H](CCCCN)C(=O)N[C@H](C(=O)N[C@@H](CC(C)C)C(=O)N[C@H](C(=O)N[C@H](C(=O)NCC(=O)N[C@@H](CC(C)C)C(=O)N1CCC[C@H]1C(=O)N[C@@H](C)C(=O)N[C@@H](CC(C)C)C(=O)N[C@@H](CCCCN)C(=O)N[C@@H](CC(C)C)C(=O)N[C@H](C(=O)N[C@@H](CC(C)C)C(=O)N[C@@H](CCCCN)C(=O)O)[C@@H](C)O)[C@@H](C)O)[C@@H](C)O)C(C)C)C(C)C` [KLFKKIGIGAVLKVLTTGLPALKLTLK], for which the minimal inhibitory concentration (MIC) in experiment [8] came to 22.3 µM (≈ 64 µg/mL); in the experiment with Escherichia coli UB1005, 1.75 µM (≈ 5 µg/mL); in experiment [9] it was 11.2 µM (≈ 32 µg/mL); in experiment [10], 1.4 µM (≈ 4 µg/mL); in [11], 11.2 µM (≈ 32 µg/mL); in experiment [12], 6.63 µM (≈ 19 µg/mL). In addition, the MIC in experiment [13] came to 10.1 µM (≈ 29 µg/mL).

`CC[C@H](C)[C@H](NC(=O)[C@H](Cc1ccccc1)NC(=O)[C@H](CO)NC(=O)[C@H](CCCCN)NC(=O)[C@H](Cc1c[nH]c2ccccc12)NC(=O)[C@@H](N)CCCCN)C(=O)N[C@@H](CCCCN)C(=O)N[C@@H](CC(N)=O)C(=O)N[C@@H](CC(C)C)C(=O)N[C@@H](CCC(=O)O)C(=O)N[C@@H](CCCCN)C(=O)N[C@H](C(=O)N[C@@H](CC(C)C)C(=O)N[C@@H](CCCCN)C(=O)N1CCC[C@H]1C(=O)NCC(=O)NCC(=O)N[C@@H](CC(C)C)C(=O)N[C@@H](CC(C)C)C(=O)N[C@@H](CO)C(=O)N[C@@H](CC(N)=O)C(=O)N[C@H](C(=O)N[C@H](C(=O)N[C@H](C(=O)N[C@@H](CO)C(=O)N[C@@H](CC(C)C)C(=O)O)[C@@H](C)O)C(C)C)[C@@H](C)CC)C(C)C` [KWKSFIKNLEKVLKPGGLLSNIVTSL]: the MIC against Escherichia coli UB1005 was determined as 0.343 µM (≈ 1 µg/mL); in [14] it was 2.75 µM (≈ 8 µg/mL).

As for `CC[C@H](C)[C@H](NC(=O)[C@H](CCCCN)NC(=O)[C@H](CCCCN)NC(=O)[C@H](Cc1c[nH]c2ccccc12)NC(=O)[C@H](CC(C)C)NC(=O)[C@H](C)N)C(=O)N[C@@H](CC(C)C)C(=O)N[C@@H](CCCCN)C(=O)N[C@@H](CC(N)=O)C(=O)N[C@@H](C)C(=O)NCC(=O)N[C@@H](CCCCN)C(=O)N[C@@H](C)C(=O)N[C@@H](C)C(=O)N[C@@H](CC(C)C)C(=O)N[C@@H](CC(N)=O)C(=O)N[C@@H](CCCCN)C(=O)N[C@H](C(=O)N[C@@H](CC(N)=O)C(=O)N[C@@H](CCC(N)=O)C(=O)N[C@H](C(=O)N[C@H](C(=O)N[C@@H](CCC(N)=O)C(N)=O)C(C)C)[C@@H](C)CC)[C@@H](C)CC` [ALWKKILKNAGKAALNKINQIVQ], the figures for the MIC in experiment [2], in experiment [3] and in experiment [5] were 4 µM (≈ 10.2 µg/mL), 8 µM (≈ 20.5 µg/mL) and 8 µM (≈ 20.5 µg/mL), respectively.

Source of the values: DBAASP.
